Reference: ChEMBL document CHEMBL3232754, “Identification of novel bivalent mimetics of annonaceous acetogenins via a scaffold-hopping strategy” (Bioorg Med Chem Lett, 2014)

Legend:
[1] = Growth inhibition of human HLF cells by MTT assay
HCT-116 [2] = experiment: Growth inhibition of human HCT116 cells after 72 hrs by MTT assay; format: functional; conditions: HCT-116, 72 h
[3] = Growth inhibition of human 16HBE cells by MTT assay
HCT-116 [4] = experiment: Growth inhibition of human HCT116 cells by MTT assay
[5] = Growth inhibition of human HLF cells after 72 hrs by MTT assay; format: cell-based
[6] = Growth inhibition of human SGC7901 cells after 72 hrs by MTT assay; format: functional; conditions: SGC-7901, 72 h
[7] = Growth inhibition of human 16HBE cells after 72 hrs by MTT assay; format: cell-based, 16HBE14o-
[8] = Growth inhibition of human SGC7901 cells by MTT assay; conditions: SGC-7901

Row | Compound | GI50 (HCT-116 [2]) [µM] | GI50 (HCT-116 [4]) [µM] | GI50 [8] [µM] | GI50 [1] [µM] | GI50 [3] [µM] | GI50 at 72 h [5] [µM] | GI50 [6] [µM] | GI50 at 72 h [7] [µM]
1 | COC1=C(OC)C(=O)C(CCCCCCCCCCN2CCCN(C(=O)c3ccc(-c4ccccc4)cc3)CC2)=C(C)C1=O | 1.36 | 9.73 | > 20 | > 20 | 8.01 | > 20 | 5 | 10.3
2 | CC1=C(CCCCCCCCCCN2CCCN(C(=O)c3ccc(-c4ccccc4)cc3)CC2)C(=O)c2ccccc2C1=O | 0.97 | 13.2 | > 20 | > 20 | 12.4 | > 20 | 5.57 | 2.85
3 | COC1=C(C)C(=O)C(CCCCCCCCCCN2CCCN(C(=O)c3ccc(-c4ccccc4)cc3)CC2)=C(C)C1=O | 0.89 | 9.68 | 19.4 | > 20 | 9.76 | > 20 | 1.56 | 3.15
4 | COC1=C(OC)C(=O)C(CCCCCCCCCCN2CCN(CCCCCCCCCCC3=C(C)C(=O)C(OC)=C(OC)C3=O)CC2)=C(C)C1=O | 1.95 | 11.7 |  | > 20 | > 20 | > 20 | 9.77 | 2.63
5 | O=C1C=C(CCCCCCCCCCN2CCCN(C(=O)c3ccc(-c4ccccc4)cc3)CC2)C(=O)c2ccccc21 | > 20 | > 20 | > 20 | > 20 | > 20 | > 20 | > 20 | > 20
6 | CC1=C(CCCCCCCCCCN2CCN(CCCCCCCCCCC3=C(C)C(=O)c4ccccc4C3=O)CC2)C(=O)c2ccccc2C1=O | 0.26 | 0.26 | 0.39 | 15.7 | 4.15 | > 20 | > 20 | 3.52
7 | COC1=C(OC)C(=O)C(CCCCCCCCCCN2CCCN(CCCCCCCCCCC3=C(C)C(=O)C(OC)=C(OC)C3=O)CC2)=C(C)C1=O | 1.98 | 8.43 | 11.7 | > 20 | 14 | > 20 | 8.69 | 1.14
8 | CC1=C(C)C(=O)C(CCCCCCCCCCN2CCCN(C(=O)c3ccc(-c4ccccc4)cc3)CC2)=C(C)C1=O | 1.78 | 7.47 | 19.9 | > 20 | 7.97 | > 20 | 1.39 | 4
9 | COC1=C(C)C(=O)C(CCCCCCCCCCN(C)CCN(C)CCCCCCCCCCC2=C(C)C(=O)C(OC)=C(C)C2=O)=C(C)C1=O | 1.48 | > 20 |  | > 20 | > 20 | > 20 | 9.76 | > 20
10 | COC1=C(C)C(=O)C(CCCCCCCCCCN2CCN(C(=O)c3ccc(-c4ccccc4)cc3)CC2)=C(C)C1=O | 2.29 | 20 | > 20 | > 20 | > 20 | > 20 | 5.27 | 3.19

These reach a lower GI50 (HCT-116 [4]). Values come first.

Row | GI50 (HCT-116 [2]) [µM] | GI50 (HCT-116 [4]) [µM] | GI50 [8] [µM] | Compound | GI50 [1] [µM] | GI50 [3] [µM] | GI50 at 72 h [5] [µM] | GI50 [6] [µM] | GI50 at 72 h [7] [µM]
11 | 0.07 | 0.12 |  | CC1=C(C)C(=O)C(CCCCCCCCCCN2CCN(CCCCCCCCCCC3=C(C)C(=O)C(C)=C(C)C3=O)CC2)=C(C)C1=O | 5.87 | 1.52 | > 20 | > 20 | 3.85
12 | 0.18 | 0.15 | 0.19 | COC1=C(C)C(=O)C(CCCCCCCCCCN2CCN(CCCCCCCCCCC3=C(C)C(=O)C(OC)=C(C)C3=O)CC2)=C(C)C1=O | > 20 | 8.4 | > 20 | 0.14 | > 20
13 | 0.09 | 0.13 | 0.15 | CC1=C(CCCCCCCCCCN2CCCN(CCCCCCCCCCC3=C(C)C(=O)c4ccccc4C3=O)CC2)C(=O)c2ccccc2C1=O | 2.68 | 1.14 | 4.95 | 0.12 | 2.7
14 |  | 0.15 | 0.55 | COc1cccc2c1C(=O)c1c(O)c3c(c(O)c1C2=O)C[C@@](O)(C(=O)CO)C[C@@H]3O[C@H]1C[C@H](N)[C@H](O)[C@H](C)O1 [DOXORUBICIN] | 0.33 | 0.18 |  |  | 
15 | 0.03 | 0.09 | 0.25 | CCCCCCCCCC[C@H](O)COCCOC[C@@H](O)CCCCCCCCCCCCC1=C[C@H](C)OC1=O | 2.62 | 4.8 | 9.71 | 0.16 | 3.34
16 | 0.3 | 0.1 | 0.14 | CC1=C(C)C(=O)C(CCCCCCCCCCN2CCCN(CCCCCCCCCCC3=C(C)C(=O)C(C)=C(C)C3=O)CC2)=C(C)C1=O | 2.55 | 0.91 | 0.36 | 0.14 | 3.32
17 | 0.04 | 0.02 |  | COC1=C(C)C(=O)C(CCCCCCCCCCN2CCCN(CCCCCCCCCCC3=C(C)C(=O)C(OC)=C(C)C3=O)CC2)=C(C)C1=O | 6.86 | 1.78 | > 20 | 0.04 | > 20
